Results taken from US10392428B2, “GLP-1 derivatives and uses thereof” (Novo Nordisk A/S, priority 2014, dated 2019).
Read-outs that look alike come from different tables or passages of the source. Non-standard residues stand in square brackets, D forms with d. Residues, ends and D or L forms follow the SMILES beside them. Groups on a side chain read outwards from the residue. *: point of attachment. X1 = O=C(O)CCCCCCCCCCCCCCCCCCC(=O)NC[C@H]1CC[C@H](C(=O)N[C@@H](CCC(=O)NCCOCCOCC(=O)NCCOCCOCC(=O)NCCCC[C@H](NC(=O)COCCOCCNC(=O)COCCOCCNC(=O)CC[C@H](NC(=O)[C@H]2CC[C@H](CNC(=O)CCCCCCCCCCCCCCCCCCC(=O)O)CC2)C(=O)O)C(=O)*)C(=O)O)CC1; Desaminohistidyl = O=C(CCc1c[nH]cn1)*; AEEA = NCCOCCOCC(=O)O; Aib = CC(C)(N)C(=O)O

Assay: Pharmacokinetic study in minipigs (i.v.)
Conditions: male, Göttingen, minipig, in vivo, iv
Procedure: The derivatives of Examples 12, 14, and 15 were dosed 2 nmol/kg. The derivatives of Examples 1 and 2 were dosed 15 nmol/kg.

[1] = minipigs, i.v., 5 nmol/kg, harmonic mean, read-out: Terminal half-live (converted)

half-life	Structure (SMILES)	half-life [1]	also measured
3 h	CCCCCCCCCCCC(=O)NCCOCCOCC(=O)NCCCC[C@H](NC(=O)COCCOCCNC(=O)CCCCCCCCCCC)C(=O)NCCOCCOCC(=O)NCCCC[C@H](NC(=O)[C@H](CCCNC(=N)N)NC(=O)C(C)(C)NC(=O)[C@H](CCCCN)NC(=O)[C@@H](NC(=O)[C@H](CC(C)C)NC(=O)[C@H](Cc1c[nH]c2ccccc12)NC(=O)[C@H](C)NC(=O)[C@@H](NC(=O)[C@H](Cc1ccccc1)NC(=O)[C@H](CCC(=O)O)NC(=O)[C@H](CCCCN)NC(=O)[C@H](C)NC(=O)[C@H](C)NC(=O)[C@H](CCC(N)=O)NC(=O)C(C)(C)NC(=O)[C@H](CCC(=O)O)NC(=O)[C@H](CC(C)C)NC(=O)[C@H](Cc1ccc(O)cc1)NC(=O)[C@H](CO)NC(=O)[C@H](CO)NC(=O)[C@@H](NC(=O)[C@H](CC(=O)O)NC(=O)[C@H](CO)NC(=O)[C@@H](NC(=O)[C@H](Cc1ccccc1)NC(=O)[C@@H](NC(=O)CNC(=O)[C@H](CCC(=O)O)NC(=O)C(C)(C)NC(=O)[C@@H](N)Cc1c[nH]cn1)[C@@H](C)O)[C@@H](C)O)C(C)C)[C@@H](C)CC)C(C)C)C(N)=O [Comparative Example 1, N{Epsilon-37}-[2-[2-[2-[[(2S)-2,6-bis[[2-[2-[2-(dodecanoylamino)ethoxy]ethoxy]acetyl]amino]hexanoyl]amino]ethoxy]ethoxy]acetyl]-[Aib8,Aib22,Aib35,Lys37]-GLP-1-(7-37)-peptide Amide, reference compound]		
3 h	CCCCCCCCCCCCCC(=O)NCCOCCOCC(=O)NCCCC[C@H](NC(=O)COCCOCCNC(=O)CCCCCCCCCCCCC)C(=O)NCCOCCOCC(=O)NCCCC[C@H](NC(=O)[C@H](CCCNC(=N)N)NC(=O)C(C)(C)NC(=O)[C@H](CCCCN)NC(=O)[C@@H](NC(=O)[C@H](CC(C)C)NC(=O)[C@H](Cc1c[nH]c2ccccc12)NC(=O)[C@H](C)NC(=O)[C@@H](NC(=O)[C@H](Cc1ccccc1)NC(=O)[C@H](CCC(=O)O)NC(=O)[C@H](CCCCN)NC(=O)[C@H](C)NC(=O)[C@H](C)NC(=O)[C@H](CCC(N)=O)NC(=O)C(C)(C)NC(=O)[C@H](CCC(=O)O)NC(=O)[C@H](CC(C)C)NC(=O)[C@H](Cc1ccc(O)cc1)NC(=O)[C@H](CO)NC(=O)[C@H](CO)NC(=O)[C@@H](NC(=O)[C@H](CC(=O)O)NC(=O)[C@H](CO)NC(=O)[C@@H](NC(=O)[C@H](Cc1ccccc1)NC(=O)[C@@H](NC(=O)CNC(=O)[C@H](CCC(=O)O)NC(=O)C(C)(C)NC(=O)[C@@H](N)Cc1c[nH]cn1)[C@@H](C)O)[C@@H](C)O)C(C)C)[C@@H](C)CC)C(C)C)C(N)=O [Comparative Example 2, N{Epsilon-37}-[2-[2-[2-[[(2S)-2,6-bis[[2-[2-[2-(tetradecanoylamino)ethoxy]ethoxy]acetyl]amino]hexanoyl]amino]ethoxy]ethoxy]acetyl]-[Aib8,Aib22,Aib35,Lys37]-GLP-1-(7-37)-peptide Amide, reference compound]		
	CC[C@H](C)[C@H](NC(=O)[C@H](Cc1ccccc1)NC(=O)[C@H](CCC(=O)O)NC(=O)[C@H](CCCNC(=N)N)NC(=O)[C@H](C)NC(=O)[C@H](C)NC(=O)[C@H](CCC(N)=O)NC(=O)[C@H](CCC(=O)O)NC(=O)[C@H](CCC(=O)O)NC(=O)[C@H](CC(C)C)NC(=O)[C@H](Cc1ccc(O)cc1)NC(=O)[C@H](CO)NC(=O)[C@H](CO)NC(=O)[C@@H](NC(=O)[C@H](CC(=O)O)NC(=O)[C@H](CO)NC(=O)[C@@H](NC(=O)[C@H](Cc1ccccc1)NC(=O)[C@@H](NC(=O)CNC(=O)[C@H](CCC(=O)O)NC(=O)C(C)(C)NC(=O)[C@@H](N)Cc1c[nH]cn1)[C@@H](C)O)[C@@H](C)O)C(C)C)C(=O)N[C@@H](C)C(=O)N[C@@H](Cc1c[nH]c2ccccc12)C(=O)N[C@@H](CC(C)C)C(=O)N[C@H](C(=O)N[C@@H](CCCNC(=N)N)C(=O)NCC(=O)N[C@@H](CCCNC(=N)N)C(=O)N[C@@H](CCCCNC(=O)COCCOCCNC(=O)COCCOCCNC(=O)[C@H](CCCCNC(=O)COCCOCCNC(=O)COCCOCCNC(=O)CC[C@H](NC(=O)[C@H]1CC[C@H](CNC(=O)CCCCCCCCCCCCCCCCCCC(=O)O)CC1)C(=O)O)NC(=O)COCCOCCNC(=O)COCCOCCNC(=O)CC[C@H](NC(=O)[C@H]1CC[C@H](CNC(=O)CCCCCCCCCCCCCCCCCCC(=O)O)CC1)C(=O)O)C(=O)O)C(C)C [Example 2, N{Epsilon-37}-[2-[2-[2-[[2-[2-[2-[[(2S)-2,6-bis[[2-[2-[2-[[2-[2-[2-[[(4S)-4-carboxy-4-[[4-[(19-carboxynonadecanoylamino)methyl]cyclohexanecarbonyl]amino]butanoyl]amino]ethoxy]ethoxy]acetyl]amino]ethoxy]ethoxy]acetyl]amino]hexanoyl]amino]ethoxy]ethoxy]acetyl]amino]ethoxy]ethoxy]acetyl]-[Aib8,Glu22,Arg26,Arg34,Lys37]-GLP-1-(7-37)-peptide]		half-life (minipigs, i.v., 15 nmol/kg, harmonic mean, read-out: Terminal half-live (converted)): 130 h
	CC[C@H](C)[C@H](NC(=O)[C@H](Cc1ccccc1)NC(=O)[C@H](CCC(=O)O)NC(=O)[C@H](CCCNC(=N)N)NC(=O)[C@H](C)NC(=O)[C@H](C)NC(=O)[C@H](CCC(N)=O)NC(=O)[C@H](CCC(=O)O)NC(=O)[C@H](CCC(=O)O)NC(=O)[C@H](CC(C)C)NC(=O)[C@H](Cc1ccc(O)cc1)NC(=O)[C@H](CO)NC(=O)[C@H](CO)NC(=O)[C@@H](NC(=O)[C@H](CC(=O)O)NC(=O)[C@H](CO)NC(=O)[C@@H](NC(=O)[C@H](Cc1ccccc1)NC(=O)[C@@H](NC(=O)CNC(=O)[C@H](CCC(=O)O)NC(=O)C(C)(C)NC(=O)CCc1cnc[nH]1)[C@@H](C)O)[C@@H](C)O)C(C)C)C(=O)N[C@@H](C)C(=O)N[C@@H](Cc1c[nH]c2ccccc12)C(=O)N[C@@H](CC(C)C)C(=O)N[C@H](C(=O)N[C@@H](CCCNC(=N)N)C(=O)NCC(=O)N[C@@H](CCCNC(=N)N)C(=O)NCC(=O)NCC(=O)N[C@@H](CCCCNC(=O)COCCOCCNC(=O)COCCOCCNC(=O)[C@H](CCCCNC(=O)COCCOCCNC(=O)COCCOCCNC(=O)CC[C@H](NC(=O)[C@H]1CC[C@H](CNC(=O)CCCCCCCCCCCCCCCCCCC(=O)O)CC1)C(=O)O)NC(=O)COCCOCCNC(=O)COCCOCCNC(=O)CC[C@H](NC(=O)[C@H]1CC[C@H](CNC(=O)CCCCCCCCCCCCCCCCCCC(=O)O)CC1)C(=O)O)C(=O)O)C(C)C [Example 7, [Imp7,Aib8,Glu22,Arg26,Arg34]-GLP-1-(7-37)-peptidyl-Gly-N{Epsilon}[2-[2-[2-[[2-[2-[2-[[(2S)-2,6-bis[[2-[2-[2-[[2-[2-[2-[[(4S)-4-carboxy-4-[[4-[(19-carboxynonadecanoylamino)methyl]cyclohexanecarbonyl]amino]butanoyl]amino]ethoxy]ethoxy]acetyl]amino]ethoxy]ethoxy]acetyl]amino]hexanoyl]amino]ethoxy]ethoxy]acetyl]amino]ethoxy]ethoxy]acetyl]Lys] (Desaminohistidyl-[Aib]EGTFTSDVSSYLEEQAAREFIAWLVRGRGGK([AEEA-AEEA-X1])-OH; C-terminus assumed)	134 h	
	CC[C@H](C)[C@H](NC(=O)[C@H](Cc1ccccc1)NC(=O)[C@H](CCC(=O)O)NC(=O)[C@H](CCCNC(=N)N)NC(=O)[C@H](C)NC(=O)[C@H](C)NC(=O)[C@H](CCC(N)=O)NC(=O)[C@H](CCC(=O)O)NC(=O)[C@H](CCC(=O)O)NC(=O)[C@H](CC(C)C)NC(=O)[C@H](Cc1ccc(O)cc1)NC(=O)[C@H](CO)NC(=O)[C@H](CO)NC(=O)[C@@H](NC(=O)[C@H](CC(=O)O)NC(=O)[C@H](CO)NC(=O)[C@@H](NC(=O)[C@H](Cc1ccccc1)NC(=O)[C@@H](NC(=O)CNC(=O)[C@H](CCC(=O)O)NC(=O)C(C)(C)NC(=O)[C@@H](N)Cc1c[nH]cn1)[C@@H](C)O)[C@@H](C)O)C(C)C)C(=O)N[C@@H](C)C(=O)N[C@@H](Cc1c[nH]c2ccccc12)C(=O)N[C@@H](CC(C)C)C(=O)N[C@H](C(=O)N[C@@H](CCCNC(=N)N)C(=O)NCC(=O)N[C@@H](CCCNC(=N)N)C(=O)N[C@@H](CCCCNC(=O)COCCOCCNC(=O)COCCOCCNC(=O)COCCOCCNC(=O)COCCOCCNC(=O)[C@H](CCCCNC(=O)CC[C@H](NC(=O)[C@H]1CC[C@H](CNC(=O)CCCCCCCCCCCCCCCCCCC(=O)O)CC1)C(=O)O)NC(=O)CC[C@H](NC(=O)[C@H]1CC[C@H](CNC(=O)CCCCCCCCCCCCCCCCCCC(=O)O)CC1)C(=O)O)C(=O)O)C(C)C [Example 8, N{Epsilon-37}-[2-[2-[2-[[2-[2-[2-[[2-[2-[2-[[2-[2-[2-[[(2S)-2,6-bis[[(4S)-4-carboxy-4-[[4-[(19-carboxynonadecanoylamino)methyl]cyclohexanecarbonyl]amino]butanoyl]amino]hexanoyl]amino]ethoxy]ethoxy]acetyl]amino]ethoxy]ethoxy]acetyl]amino]ethoxy]ethoxy]acetyl]amino]ethoxy]ethoxy]acetyl]-[Aib8,Glu22,Arg26,Arg34,Lys37]-GLP-1-(7-37)-peptide]	145 h	
	CC[C@H](C)[C@H](NC(=O)[C@H](Cc1ccccc1)NC(=O)[C@H](CCC(=O)O)NC(=O)[C@H](CCCNC(=N)N)NC(=O)[C@H](C)NC(=O)[C@H](C)NC(=O)[C@H](CCC(N)=O)NC(=O)[C@H](CCC(=O)O)NC(=O)[C@H](CCC(=O)O)NC(=O)[C@H](CC(C)C)NC(=O)[C@H](Cc1ccc(O)cc1)NC(=O)[C@H](CO)NC(=O)[C@H](CO)NC(=O)[C@@H](NC(=O)[C@H](CC(=O)O)NC(=O)[C@H](CO)NC(=O)[C@@H](NC(=O)[C@H](Cc1ccccc1)NC(=O)[C@@H](NC(=O)CNC(=O)[C@H](CCC(=O)O)NC(=O)C(C)(C)NC(=O)[C@@H](N)Cc1c[nH]cn1)[C@@H](C)O)[C@@H](C)O)C(C)C)C(=O)N[C@@H](C)C(=O)N[C@@H](Cc1c[nH]c2ccccc12)C(=O)N[C@@H](CC(C)C)C(=O)N[C@H](C(=O)N[C@@H](CCCNC(=N)N)C(=O)NCC(=O)N[C@@H](CCCNC(=N)N)C(=O)N[C@@H](CCCCNC(=O)COCCOCCNC(=O)COCCOCCNC(=O)COCCOCCNC(=O)COCCOCCNC(=O)COCCOCCNC(=O)COCCOCCNC(=O)[C@H](CCCCNC(=O)CC[C@H](NC(=O)[C@H]1CC[C@H](CNC(=O)CCCCCCCCCCCCCCCCCCC(=O)O)CC1)C(=O)O)NC(=O)CC[C@H](NC(=O)[C@H]1CC[C@H](CNC(=O)CCCCCCCCCCCCCCCCCCC(=O)O)CC1)C(=O)O)C(=O)O)C(C)C [Example 12]		half-life (minipigs, i.v., 2 nmol/kg, harmonic mean, read-out: Terminal half-live (converted)): 142 h
